From ChEMBL document CHEMBL6071165, “Design, synthesis and biological evaluation of plant-derived miliusol derivatives achieve TNBC profound regression in vivo” (Eur J Med Chem, 2024) come the findings set out here.

In data set [1] the test system is BT-549. Description: Inhibition of cell migration in human BT-549 cells assessed as decrease in MMP-2 level incubated for 24 hrs by Western blot analysis. In kind it is functional, cell-based. To be noted: dose 0.5-2 µM.
The test system of data set [2] is BT-549. In words: Inhibition of glycolysis in human BT-549 cells assessed as reduction in lactate production at 0.5 to 2 uM. In kind it is functional, cell-based. To be noted: dose 0.5-2 µM.
Data set [3] deals with BT-549. In words: Induction of ER stress in human BT-549 cells assessed as appearance of large number of vacuoles at 1 uM incubated for 24 hrs by TEM analysis. In kind it is functional, cell-based.
Data set [4] relates to BT-549. Description: Inhibition of glycolysis in human BT-549 cells assessed as decrease in LDHA protein level at 0.5 to 2 uM incubated for 24 hrs by Western blot analysis. In kind it is functional, cell-based. To be noted: dose 0.5-2 µM.
Data set [5] concerns MDA-MB-231. Description: Induction of ER stress in human MDA-MB-231 cells assessed as upregulation of BIP protein level at 1 uM incubated for 24 hrs by DAPI staining based immunofluorescence analysis. Format: functional, cell-based.
Data set [6] concerns MDA-MB-231. Description: Induction of ER stress in human MDA-MB-231 cells assessed as activation of CHOP protein level incubated for 24 hrs by Western blot analysis. Format: functional, cell-based. To be noted: dose 0.5-2 µM. For orientation: In western blotting, separated proteins are transferred to a membrane and probed.
The subject of data set [7] is BT-549. Description: Induction of apoptosis in human BT-549 cells assessed as early apoptotic cells at 2 uM incubated for 24 hrs by Annexin V-PI staining based flow cytometric analysis (reference value: 0.78%). Format: functional.
The test system of data set [8] is Mitochondrial membrane. In words: Disruption of mitochondrial potential loss in human MDA-MB-231 cells assessed as decrease in JC-1 aggregates at 1 uM incubated for 24 hrs by JC-1 staining based flow cytometric analysis (Rvb =98.1%). In kind it is cell membranes. Set-up: scale not given: the % may be the effect or the level left. Background: A flow cytometer gives signals particle by particle.

Data set [9] concerns MDA-MB-231. In words: Induction of apoptosis in human MDA-MB-231 cells assessed as upregulation of cleavage of PARP level at 0.5 to 2 uM incubated for 24 hrs by Western blot analysis. To be noted: dose 0.5-2 µM. Format: functional, cell-based.
Data set [10] deals with BT-549. Description: Antitumor activity against human BT-549 cells xenografted in female BALB/c mouse model assessed as reduction in tumor weight administered subcutaneously and measured every day. Format: functional, cell-based. To be noted: dose 5-20 mg/kg, route sc. (A xenograft is tissue or cells of one species grown in another, often human tumour cells in immunodeficient mice.)

Data set [11] in a line: Toxicity in female BALB/c mouse xenografted with human BT-549 cells assessed as effect on pathological changes in kidney at 5 to 20 mg/kg, sc by H and E staining based analysis. In kind it is organism-based. To be noted: in vivo, dose 5-20 mg/kg.
Data set [12] deals with MDA-MB-231. In words: Antiproliferative activity against human MDA-MB-231 cells xenografted in female BALB/c mouse model assessed as fold change in downregulation of MMP-2 protein level at 20 mg/kg administered subcutaneously incubated for 24 hrs by Western blot analysis (reference value: 1.00%). In kind it is functional. To be noted: route sc.
For data set [13], the system named is BT-549. In words: Antiproliferative activity against human BT-549 cells xenografted in female BALB/c mouse model assessed as fold change in downregulation of MMP-2 protein level at 5 mg/kg administered subcutaneously incubated for 24 hrs by Western blot analysis (reference value: 1.00%). In kind it is functional. Conditions: route sc.
In data set [14] the test system is BT-549. Description: Antiproliferative activity against human BT-549 cells xenografted in female BALB/c mouse model assessed as fold change in downregulation of MMP-2 protein level at 10 mg/kg administered subcutaneously incubated for 24 hrs by Western blot analysis (reference value: 1.00%). To be noted: route sc. Format: functional.
Data set [15] has as its system MDA-MB-231. Description: Antiproliferative activity against human MDA-MB-231 cells xenografted in female BALB/c mouse model assessed as fold change in upregulation of BIP protein level at 5 mg/kg administered subcutaneously incubated for 24 hrs by Western blot analysis (reference value: 1.00%). Format: functional. Conditions: route sc.
The test system of data set [16] is BT-549. In words: Antiproliferative activity against human BT-549 cells xenografted in female BALB/c mouse model assessed as fold change in upregulation of BIP protein level at 5 mg/kg administered subcutaneously incubated for 24 hrs by Western blot analysis (reference value: 1.00%). Format: functional. To be noted: route sc.
Data set [17] deals with MDA-MB-231. In words: Antiproliferative activity against human MDA-MB-231 cells xenografted in female BALB/c mouse model assessed as fold change in upregulation of BAX protein level at 10 mg/kg administered subcutaneously incubated for 24 hrs by Western blot analysis (reference value: 1.00%). Format: functional. Conditions: route sc.
Data set [18] has as its system BT-549. Description: Antiproliferative activity against human BT-549 cells xenografted in female BALB/c mouse model assessed as fold change in upregulation of BAX protein level at 10 mg/kg administered subcutaneously incubated for 24 hrs by Western blot analysis (reference value: 1.00%). Format: functional. Conditions: route sc.
Data set [19] concerns MDA-MB-231. In words: Antiproliferative activity against human MDA-MB-231 cells xenografted in female BALB/c mouse model assessed as fold change in cleavage of caspase-3 level at 10 mg/kg administered subcutaneously incubated for 24 hrs by Western blot analysis (reference value: 1.00%). In kind it is functional. To be noted: route sc.
The test system of data set [20] is BT-549. Description: Antiproliferative activity against human BT-549 cells xenografted in female BALB/c mouse model assessed as fold change in cleavage of caspase-3 level at 20 mg/kg administered subcutaneously incubated for 24 hrs by Western blot analysis (reference value: 1.00%). Conditions: route sc. In kind it is functional.
Data set [21] can be described thus: Toxicity in female BALB/c mouse assessed as change in liver administered subcutaneously measured upto 16 days. Format: tissue-based. Conditions: in vivo, sc, 384 h, time < 16 day.

Activity calls are given as the source filed them. The calls are words filed in the database; no cut-off is given here.

For `CC(C)=CCC/C(C)=C/[C@H]1OC(=O)CC12C[C@H](OC(=O)Cc1ccc(NC(=O)/C=C/c3ccccc3)cc1)C=CC2=O` (stereo partly specified), the inhibition result in data set [1] is “Dose-Dependent Effect”. Also, the inhibition result in [2] and in data set [4] was “Active” each time. Also, the result in [3], in data set [5] and in [9] was Active. The Activity entry in [6] is “Dose-Dependent Effect”; in data set [7] it was 11.1%; in [8], 58.2%; in [10] it was “Dose-Dependent Effect”; in [11], “Non-Toxic”; in data set [21], “Non-Toxic”. Besides, the “fold change (FC)” value in data set [12] stood at 0.26; in [13], 0.99; in data set [14] it was 0.75; in data set [15], 2.18; in [16], 1.4; in data set [17], 1.13. Further, the “fold change (FC)” value in data set [18] is 1.61; in data set [19] it was 1.67; in data set [20] it was 1.74.
